Laboratory results as given in patent publication US9150526B2, “Biaryl-propionic acid derivatives and their use as pharmaceuticals” (SANOFI, priority 2013, dated 2015).

System: Recombinant human cathepsin A
Assay: Cathepsin A inhibitory activity (Bodipy FL-bradykinin substrate, microfluidic capillary electrophoresis)
Format: biochemical
Settings: read-out: CATH A IC50
Description: Pharmacological Tests a) Cathepsin a Inhibitory Activity
Recombinant human cathepsin A (residues 29-480, with a C-terminal 10-His tag; R&D Systems, #1049-SE) was proteolytically activated with recombinant human cathepsin L (R&D Systems, #952-CY). Briefly, cathepsin A was incubated at 10 μg/ml with cathepsin L at 1 μg/ml in activation buffer (25 mM 2-(morpholin-4-yl)-ethanesulfonic acid (MES), pH 6.0, containing 5 mM dithiothreitol (DTT)) for 15 min at 37° C.
The activated cathepsin A was diluted in assay buffer (25 mM MES, pH 5.5, containing 5 mM DTT) and mixed with the test compound (dissolved in assay buffer containing (v/v) 3% DMSO) or, in the control experiments, with the vehicle in a multiple assay plate. After incubation for 15 min at room temperature, as substrate then bradykinin carrying an N-terminal ®Bodipy FL (4,4-difluoro-5,7-dimethyl-4-bora-3a,4a-diaza-s-indacene-3-propionyl) label (JPT Peptide Technologies GmbH; dissolved in assay buffer) was added to the mixture. The final concentration of cathepsin A was 833 ng/ml and the final concentration of labeled bradykinin 2 μM. After incubation for 15 min at room temperature the reaction was stopped by the addition of stop buffer (130 mM 2-(4-(2-hydroxy-ethyl)-piperazin-1-yl)-ethanesulfonic acid, pH 7.4, containing (v/v) 0.013% ®Triton X-100, 0.13% Coating Reagent 3 (Caliper Life Sciences), 6.5% DMSO and 20 μM ebelactone B (Sigma, # E0886)).
Uncleaved substrate and product were then separated by a microfluidic capillary electrophoresis on a LabChip® 3000 Drug Discovery System (12-Sipper-Chip; Caliper Life Sciences) and quantified by determination of the respective peak areas. Substrate turnover was calculated by dividing product peak area by the sum of substrate and product peak areas, and the enzyme activity and the inhibitory effect of the test compound thus quantified.

Compound | IC50 [nM]
COc1ccc(C(C)C)cc1-c1cccc([C@@H](CC(=O)O)c2nnc(C)o2)c1 [compound 185] | 27
COc1cc(C)cc(OC)c1-c1cncc(C(CC(=O)O)c2nnc(C)o2)c1 (stereo not drawn) [compound 186] | 343
CCOc1ccccc1-c1cncc(C(CC(=O)O)c2nnc(C)o2)c1 (stereo not drawn) [compound 193] | 4270
COc1cc(F)ccc1-c1cc(C(CC(=O)O)c2nnc(C)o2)cc(C(F)(F)F)c1 (stereo not drawn) [compound 200] | 35
COc1ccc(C(C)(C)C)cc1-c1cc(C(CC(=O)O)c2nnc(C)o2)cc(C(F)(F)F)c1 (stereo not drawn) [compound 203] | 17
COc1ccc2c(c1-c1cc(C(CC(=O)O)c3nnc(C)o3)cc(C(F)(F)F)c1)OC(C)(C)C2 (stereo not drawn) [compound 207] | 10
Cc1nnc(C(CC(=O)O)c2cc(-c3ccccc3OC(F)(F)F)cc(C(F)(F)F)c2)o1 (stereo not drawn) [compound 208] | 65
COc1ccc(Cl)cc1-c1cc(C(CC(=O)O)c2nnc(C)o2)cc(C(F)(F)F)c1 (stereo not drawn) [compound 209] | 17
COc1ccc(-c2cc(C(CC(=O)O)c3nnc(C)o3)cc(C(F)(F)F)c2)c(OC)c1 (stereo not drawn) [compound 211] | 23
COc1ccc(S(C)(=O)=O)cc1-c1cc(C(CC(=O)O)c2nnc(C)o2)cc(C(F)(F)F)c1 (stereo not drawn) [compound 215] | 130
COc1cccc(C(=O)N2CCCC2)c1-c1cc(C(CC(=O)O)c2nnc(C)o2)cc(C(F)(F)F)c1 (stereo not drawn) [compound 216] | 1460
COc1ccccc1-c1cc(C(CC(=O)O)c2nnc(C)o2)cc(C(F)(F)F)c1 (stereo not drawn) [compound 217] | 13
COc1ccc(F)cc1-c1cc(C(CC(=O)O)c2nnc(C)o2)cc(C(F)(F)F)c1 (stereo not drawn) [compound 218] | 12
COc1c(C)cccc1-c1cc(C(CC(=O)O)c2nnc(C)o2)cc(C(F)(F)F)c1 (stereo not drawn) [compound 220] | 53
COc1ccc(CO)cc1-c1cc(C(CC(=O)O)c2nnc(C)o2)cc(C(F)(F)F)c1 (stereo not drawn) [compound 221] | 22
COc1ccc(C(C)(C)C#N)cc1-c1cc(F)cc(C(CC(=O)O)c2nnc(C)o2)c1 (stereo not drawn) [compound 222] | 4

Next, values leading:

IC50 [nM] | Compound
5800 | COc1ccccc1-c1cncc(C(CC(=O)O)c2nnc(C)o2)c1 (stereo not drawn) [compound 190]
3910 | COc1ccc(Cl)cc1-c1cncc(C(CC(=O)O)c2nnc(C)o2)c1 (stereo not drawn) [compound 191]
7070 | COc1ccc(F)cc1-c1cncc(C(CC(=O)O)c2nnc(C)o2)c1 (stereo not drawn) [compound 192]
7140 | COc1ccc(-c2cncc(C(CC(=O)O)c3nnc(C)o3)c2)c(OC)c1 (stereo not drawn) [compound 194]
3900 | COc1cccc(F)c1-c1cncc(C(CC(=O)O)c2nnc(C)o2)c1 (stereo not drawn) [compound 195]
4760 | COc1ccc(OC(F)(F)F)cc1-c1cncc(C(CC(=O)O)c2nnc(C)o2)c1 (stereo not drawn) [compound 197]
3560 | COc1cccc(Cl)c1-c1cncc(C(CC(=O)O)c2nnc(C)o2)c1 (stereo not drawn) [compound 199]
14 | COc1ccc(OC)c(-c2cc(C(CC(=O)O)c3nnc(C)o3)cc(C(F)(F)F)c2)c1 (stereo not drawn) [compound 201]
17 | COc1ccc(C)cc1-c1cc(C(CC(=O)O)c2nnc(C)o2)cc(C(F)(F)F)c1 (stereo not drawn) [compound 202]
31 | COc1ccc(C(C)C)cc1-c1cc(C(CC(=O)O)c2nnc(C)o2)cc(C(F)(F)F)c1 (stereo not drawn) [compound 204]
2 | COc1cccc(OC)c1-c1cc(C(CC(=O)O)c2nnc(C)o2)cc(C(F)(F)F)c1 (stereo not drawn) [compound 205]
6 | COc1cc(C)cc(OC)c1-c1cc(C(CC(=O)O)c2nnc(C)o2)cc(C(F)(F)F)c1 (stereo not drawn) [compound 206]
14 | CCOc1ccccc1-c1cc(C(CC(=O)O)c2nnc(C)o2)cc(C(F)(F)F)c1 (stereo not drawn) [compound 210]
8 | COc1cccc(F)c1-c1cc(C(CC(=O)O)c2nnc(C)o2)cc(C(F)(F)F)c1 (stereo not drawn) [compound 212]
51 | COc1ccc(OC(F)(F)F)cc1-c1cc(C(CC(=O)O)c2nnc(C)o2)cc(C(F)(F)F)c1 (stereo not drawn) [compound 213]
17 | COc1cccc(Cl)c1-c1cc(C(CC(=O)O)c2nnc(C)o2)cc(C(F)(F)F)c1 (stereo not drawn) [compound 214]
73 | COc1cccc(CO)c1-c1cc(C(CC(=O)O)c2nnc(C)o2)cc(C(F)(F)F)c1 (stereo not drawn) [compound 219]
